According to ChEMBL document CHEMBL1201862, “PubChem BioAssay data set” (2004):
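These data come from cells grown in 96-well plates and exposed to compound for 48 hours at five concentrations. GI50 is the concentration that inhibits growth by half.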 Activity calls are given as the source filed them. No stated cut-off is given here; in the data, active = GI50 up to about 1.1 µM and inactive = higher.

Columns and labels:
Test in all cases: NCI tumour cell line growth inhibition, 48 h
HCC 2998 = test system: HCC 2998
UACC-257 = test system: UACC-257
LXFL 529 = test system: LXFL 529
SW-620 = test system: SW-620
RXF 393 = test system: RXF 393
SK-OV-3 = test system: SK-OV-3
TK-10 = test system: TK-10
XF498 = test system: XF498
MOLT-4 = test system: MOLT-4
SF-295 = test system: SF-295
ACHN = test system: ACHN
A549 = test system: A549
HT-29 = test system: HT-29
DMS-273 = test system: DMS-273
K562 = test system: K562
HL-60 = test system: HL-60

| SMILES | GI50 (HCC 2998) | GI50 (UACC-257) | GI50 (LXFL 529) | GI50 (SW-620) | GI50 (RXF 393) | GI50 (SK-OV-3) | GI50 (TK-10) | GI50 (XF498) | GI50 (MOLT-4) | GI50 (SF-295) | GI50 (ACHN) | GI50 (A549) | GI50 (HT-29) | GI50 (DMS-273) | GI50 (K562) | GI50 (HL-60) |
| --- | --- | --- | --- | --- | --- | --- | --- | --- | --- | --- | --- | --- | --- | --- | --- | --- |
| O=C1/C(=C/c2ccccc2)CCCC/C1=C\c1ccccc1 | 48.5 µM (inactive) | 41.2 µM (inactive) | 55.2 µM (inactive) | 58.5 µM (inactive) | 27.2 µM (inactive) | > 100 µM (inactive) | > 100 µM (inactive) | 54.5 µM (inactive) | 27.7 µM (inactive) | 72.3 µM (inactive) | 78.7 µM (inactive) | 41.7 µM (inactive) | 16.2 µM (inactive) | 47.1 µM (inactive) | – | – |
| O=C1C(=O)N(c2cc(Cl)ccc2Cl)C(=O)C(=O)C1c1nc2ccccc2s1 | – | 98.2 µM (inactive) | 82.2 µM (inactive) | > 100 µM (inactive) | > 100 µM (inactive) | > 100 µM (inactive) | > 100 µM (inactive) | > 100 µM (inactive) | – | > 100 µM (inactive) | > 100 µM (inactive) | > 100 µM (inactive) | > 100 µM (inactive) | > 100 µM (inactive) | 93.1 µM (inactive) | > 100 µM (inactive) |
| O=C1CCCCCCCCCCC(=O)C2CCOCCOCCOCCC1Cc1cccc(n1)C2 | 46.1 µM (inactive) | > 100 µM (inactive) | 59.8 µM (inactive) | > 100 µM (inactive) | 32 µM (inactive) | > 100 µM (inactive) | > 100 µM (inactive) | 59.7 µM (inactive) | 31.6 µM (inactive) | 76.7 µM (inactive) | 69.8 µM (inactive) | > 100 µM (inactive) | > 100 µM (inactive) | 54.5 µM (inactive) | 50.1 µM (inactive) | – |
| CC1C(=O)OC2CC[N+]3(CC(=O)c4ccc(Br)cc4)CC=C(COC(=O)C(C)(O)C1(C)O)C23 (stereo not drawn) | > 375 µM (inactive) | > 375 µM (inactive) | – | > 375 µM (inactive) | > 375 µM (inactive) | > 375 µM (inactive) | – | 259 µM (inactive) | > 375 µM (inactive) | > 375 µM (inactive) | – | > 375 µM (inactive) | > 375 µM (inactive) | > 128 µM (inactive) | > 375 µM (inactive) | 361 µM (inactive) |
| c1cc2c(cc1C1OCC3C(c4ccc5c(c4)OCO5)OCC13)OCO2 (stereo not drawn) | 71.1 µM (inactive) | 53.8 µM (inactive) | 37.8 µM (inactive) | > 100 µM (inactive) | 57.9 µM (inactive) | > 100 µM (inactive) | 78.9 µM (inactive) | 28.8 µM (inactive) | 34.1 µM (inactive) | 87.1 µM (inactive) | 80.7 µM (inactive) | 54 µM (inactive) | 35.6 µM (inactive) | – | 35.6 µM (inactive) | – |
| CCOC(=O)C(=CNC(Cc1c[nH]c2ccccc12)C(=O)OC)C(=O)OCC (stereo not drawn) | – | – | > 100 µM (inactive) | > 100 µM (inactive) | – | > 100 µM (inactive) | > 100 µM (inactive) | > 100 µM (inactive) | > 100 µM (inactive) | > 100 µM (inactive) | > 100 µM (inactive) | – | > 100 µM (inactive) | – | > 100 µM (inactive) | > 100 µM (inactive) |
| COc1cc2c[n+](C)c3c4cc(OC)c(OC(C)C)cc4ccc3c2cc1OC | 44.2 µM (inactive) | 29.4 µM (inactive) | 7.35 µM (inactive) | 36.3 µM (inactive) | > 100 µM (inactive) | > 100 µM (inactive) | > 100 µM (inactive) | – | 50.5 µM (inactive) | > 100 µM (inactive) | > 100 µM (inactive) | 77.6 µM (inactive) | 49.3 µM (inactive) | 27.2 µM (inactive) | 32.3 µM (inactive) | 35.2 µM (inactive) |
| CN(C)C(=S)/N=c1\ss/c(=N\C(=S)N(C)C)n1-c1ccc2c(c1)OCO2 | > 100 µM (inactive) | > 100 µM (inactive) | – | > 100 µM (inactive) | > 100 µM (inactive) | > 100 µM (inactive) | > 100 µM (inactive) | – | – | > 100 µM (inactive) | > 100 µM (inactive) | > 100 µM (inactive) | – | > 100 µM (inactive) | 4.86 µM (inactive) | 3.27 µM (inactive) |
| COC1C=COC2(C)Oc3c(C)c(O)c4c(O)c(c(/C=N/N5CCN(N)CC5)c(O)c4c3C2=O)NC(=O)C(C)=CC=CC(C)C(O)C(C)C(O)C(C)C(OC(C)=O)C1C (stereo not drawn) | > 100 µM (inactive) | > 100 µM (inactive) | 63.4 µM (inactive) | 48 µM (inactive) | 34.7 µM (inactive) | > 100 µM (inactive) | > 100 µM (inactive) | – | 39 µM (inactive) | 84.3 µM (inactive) | > 100 µM (inactive) | > 100 µM (inactive) | 38.4 µM (inactive) | > 100 µM (inactive) | 44.4 µM (inactive) | 35.2 µM (inactive) |
| CCCCN/C(=N\C#N)N(Cc1ccccc1)Cc1ccccc1 | 11.9 µM (inactive) | 20.5 µM (inactive) | 16.9 µM (inactive) | 16 µM (inactive) | 45.2 µM (inactive) | 29.7 µM (inactive) | 31.6 µM (inactive) | – | 17.5 µM (inactive) | 23.4 µM (inactive) | 29.7 µM (inactive) | 37.2 µM (inactive) | 14.7 µM (inactive) | 16.1 µM (inactive) | 16.6 µM (inactive) | 18.9 µM (inactive) |
| CN(C)CCCOc1ccc(/C=C2/CCC/C(=C/c3ccc(OCCCN(C)C)cc3)C2=O)cc1 | 1.7 µM (inactive) | 2.03 µM (inactive) | 1.89 µM (inactive) | 1.77 µM (inactive) | 1.61 µM (inactive) | 1.93 µM (inactive) | 2.67 µM (inactive) | – | 0.877 µM (active) | 1.9 µM (inactive) | 1.99 µM (inactive) | 3.3 µM (inactive) | 0.442 µM (active) | 1.45 µM (inactive) | 0.299 µM (active) | 1.97 µM (inactive) |
| Cc1ccccc1NC(=O)C(=O)CC(=O)c1sc(-n2nc(-c3ccccc3)cc2-c2ccccc2)nc1C | > 100 µM (inactive) | > 100 µM (inactive) | > 100 µM (inactive) | > 100 µM (inactive) | > 100 µM (inactive) | > 100 µM (inactive) | > 100 µM (inactive) | – | > 100 µM (inactive) | > 100 µM (inactive) | > 100 µM (inactive) | > 100 µM (inactive) | > 100 µM (inactive) | > 100 µM (inactive) | > 100 µM (inactive) | > 100 µM (inactive) |
| Cc1ccccc1C(C#N)C(=O)C(=O)Nc1cccc(Cl)c1 (stereo not drawn) | > 100 µM (inactive) | > 100 µM (inactive) | – | 15.7 µM (inactive) | > 100 µM (inactive) | > 100 µM (inactive) | > 100 µM (inactive) | 71.4 µM (inactive) | > 100 µM (inactive) | > 100 µM (inactive) | > 100 µM (inactive) | > 100 µM (inactive) | > 100 µM (inactive) | > 100 µM (inactive) | 32.2 µM (inactive) | 91.4 µM (inactive) |
| O=C(N/C(=C\c1cccc([N+](=O)[O-])c1)c1nc2c(O)nc(S)nc2[nH]1)c1ccccc1 | > 100 µM (inactive) | > 100 µM (inactive) | 58.5 µM (inactive) | > 100 µM (inactive) | 45.5 µM (inactive) | > 100 µM (inactive) | – | > 100 µM (inactive) | 94.4 µM (inactive) | > 100 µM (inactive) | > 100 µM (inactive) | > 100 µM (inactive) | > 100 µM (inactive) | – | > 100 µM (inactive) | 69.3 µM (inactive) |
| COC(=O)C(CC(=O)c1c[nH]c2ccccc12)c1c[nH]c2ccccc12 (stereo not drawn) | 23 µM (inactive) | 15.4 µM (inactive) | – | 22.8 µM (inactive) | 14 µM (inactive) | 41.9 µM (inactive) | 31.2 µM (inactive) | 17.9 µM (inactive) | 16.2 µM (inactive) | > 10 µM (inactive) | 16.3 µM (inactive) | 21.2 µM (inactive) | 16.9 µM (inactive) | 13.5 µM (inactive) | 18.1 µM (inactive) | 20.1 µM (inactive) |
| COc1ccc(/C=C2\CCC(CCN(C)C)(C3=CCCC3)C2=O)cc1 (stereo not drawn) | 18.6 µM (inactive) | 16.9 µM (inactive) | 16.7 µM (inactive) | 16.8 µM (inactive) | 7.6 µM (inactive) | – | 16.7 µM (inactive) | – | 23.9 µM (inactive) | 18.7 µM (inactive) | 16.9 µM (inactive) | 19.2 µM (inactive) | 15.5 µM (inactive) | 17.1 µM (inactive) | 15.7 µM (inactive) | 15.9 µM (inactive) |
| C#CCOc1c(C(=O)OCC)c(=O)n(C)c2ccccc12 | – | – | > 100 µM (inactive) | > 100 µM (inactive) | – | > 100 µM (inactive) | > 100 µM (inactive) | 72.6 µM (inactive) | > 100 µM (inactive) | > 100 µM (inactive) | > 100 µM (inactive) | – | > 100 µM (inactive) | – | > 100 µM (inactive) | > 100 µM (inactive) |
| CCCOc1nc(N)c2cnn(C3CCCCO3)c2n1 (stereo not drawn) | > 100 µM (inactive) | > 100 µM (inactive) | > 100 µM (inactive) | > 100 µM (inactive) | > 100 µM (inactive) | > 100 µM (inactive) | – | – | > 100 µM (inactive) | > 100 µM (inactive) | > 100 µM (inactive) | > 100 µM (inactive) | > 100 µM (inactive) | > 100 µM (inactive) | > 100 µM (inactive) | > 100 µM (inactive) |
| COC1[C@@H](OC(C)=O)[C@@H](NC(=O)C(Cl)(Cl)Cl)C(I)[C@@H](N2C(=O)c3ccccc3C2=O)[C@H]1OC (stereo partly drawn) | – | > 100 µM (inactive) | > 100 µM (inactive) | > 100 µM (inactive) | > 100 µM (inactive) | – | – | – | > 100 µM (inactive) | 36.6 µM (inactive) | > 100 µM (inactive) | > 100 µM (inactive) | > 100 µM (inactive) | > 100 µM (inactive) | > 100 µM (inactive) | > 100 µM (inactive) |
